Reference: patent US20110038885A1, “CHEMOKINE ANALOGS” (priority 2007, published 2011)
Bridge positions count the residues as written; N and C are the ends. Square brackets hold non-standard residues; d marks the D form. Peptide text beside a SMILES is read from it. * marks the point of attachment. Lauroyl = CCCCCCCCCCCC(=O)*; X1 = O=C(CN1CCN(CCO)CC1)*; Octanoyl = CCCCCCCC(=O)*

How the values were obtained:
MCP-1 = assay: In vitro chemotaxis (trans-well migration) v MCP-1; type: cell-based, human
In short: (§1)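 Trans-well migration toward IL-8 or MCP-1 placed below, with agent added to THP-1 cells (10^4-10^6) in the top well and incubation at 37° C (e.g. 4 hours). MTT absorbance at 595 nm, interpolated on a cell standard curve, gives migrated cell numbers; TGFβ-type negative control and cytotoxicity check included.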

[1] = Half-life in rat plasma in vitro; type: in vitro ADME; settings: for half-life: read-out: T ½ rat plasma in vitro (converted)
IL-8 = assay: In vitro chemotaxis, inhibition v IL-8; type: cell-based, human; parameters: concentration or dose not given beside the values
In short: as §1

Half-life in rat in vivo = settings: for half-life: read-out: T ½ rat in vivo

Row | EC50 (MCP-1) [nM] | half-life [1] [min] | half-life (Half-life in rat in vivo) [min] | T ½ rat in vivo (Half-life in rat in vivo) [min] | T ½ rat plasma in vitro [1] [min] | Compound | v IL-8 inhibition (%) (IL-8)
1 | 12 | > 1680 | 19 |  |  | CC[C@H](C)[C@@H]1NC(=O)[C@H](Cc2c[nH]c3ccccc23)NC(=O)[C@H](CCCCN)NC(=O)[C@@H](N)CSSC[C@@H](C(N)=O)NC(=O)[C@H](CCC(N)=O)NC1=O [Example 1, c(Cys-Lys-Trp-Ile-Gln-Cys)-NH2] (H-CKWIQC-NH2; disulfide 1-6) | 86.7
2 | 2 |  | 5.4 |  |  | CC[C@H](C)[C@@H]1NC(=O)[C@H](Cc2c[nH]c3ccccc23)NC(=O)[C@H](CCCCN)NC(=O)[C@H](CCC(N)=O)NC(=O)[C@H](CCCCN)NC(=O)[C@@H]2CCCN2C(=O)[C@H](CC(=O)O)NC(=O)[C@H](CC(C)C)NC(=O)[C@@H](NC(C)=O)CSSC[C@@H](C(N)=O)NC(=O)[C@H](CCC(N)=O)NC1=O [Example 9, Ac-c(Cys-Leu-Asp-Pro-Lys-Gln-Lys-Trp-Ile-Gln-Cys)-NH2] (Ac-CLDPKQKWIQC-NH2; disulfide 1-11) | 102.3
3 | 7 |  | < 5 |  |  | CC[C@H](C)[C@@H]1NC(=O)[C@H](Cc2c[nH]c3ccccc23)NC(=O)[C@H](CCCCN)NC(=O)[C@H](CCC(N)=O)NC(=O)[C@H](CCCCN)NC(=O)[C@@H]2CCCN2C(=O)[C@H](CC(=O)O)NC(=O)[C@@H](NC(=O)[C@H](CC(C)C)NC(C)=O)CSSC[C@@H](C(N)=O)NC(=O)[C@H](CCC(N)=O)NC1=O [Example 19, Ac-Leu-c(Cys-Asp-Pro-Lys-Gln-Lys-Trp-Ile-Gln-Cys)-NH2] (Ac-LCDPKQKWIQC-NH2; disulfide 2-11) | 100.5
4 | 8 |  | 2.7 | 4.7 |  | CC[C@H](C)[C@@H]1NC(=O)[C@H](Cc2c[nH]c3ccccc23)NC(=O)[C@H](CCCCN)NC(=O)[C@H](CCC(N)=O)NC(=O)[C@H](CCCCN)NC(=O)[C@@H]2CCCN2C(=O)[C@@H](NC(=O)[C@H](CC(=O)O)NC(=O)[C@H](CC(C)C)NC(C)=O)CSSC[C@@H](C(N)=O)NC(=O)[C@H](CCC(N)=O)NC1=O [Example 20, Ac-Leu-Asp-c(Cys-Pro-Lys-Gln-Lys-Trp-Ile-Gln-Cys)-NH2] (Ac-LDCPKQKWIQC-NH2; disulfide 3-11) | 93.9
5 | 7 |  | 22 |  |  | CC[C@H](C)[C@@H]1NC(=O)[C@H](Cc2c[nH]c3ccccc23)NC(=O)[C@H](CCCCN)NC(=O)[C@H](CCC(N)=O)NC(=O)[C@H](CCCCN)NC(=O)[C@@H](NC(=O)[C@@H]2CCCN2C(=O)[C@H](CC(=O)O)NC(=O)[C@H](CC(C)C)NC(C)=O)CSSC[C@@H](C(N)=O)NC(=O)[C@H](CCC(N)=O)NC1=O [Example 21, Ac-Leu-Asp-Pro-c(Cys-Lys-Gln-Lys-Trp-Ile-Gln-Cys)-NH2] (Ac-LDPCKQKWIQC-NH2; disulfide 4-11) | 96.3
6 | 7 |  | 22.7 |  |  | CC[C@H](C)[C@@H]1NC(=O)[C@H](Cc2c[nH]c3ccccc23)NC(=O)[C@@H](CCCCN)NC(=O)[C@H](CCC(N)=O)NC(=O)[C@H](CCCCN)NC(=O)[C@@H]2CCCN2C(=O)[C@H](CC(=O)O)NC(=O)[C@H](CC(C)C)NC(=O)[C@@H](NC(C)=O)CSSC[C@@H](C(N)=O)NC(=O)[C@H](CCC(N)=O)NC1=O [Example 27, Ac-c(Cys-Leu-Asp-Pro-Lys-Gln-D-Lys-Trp-Ile-Gln-Cys)-NH2] (Ac-CLDPKQ[dK]WIQC-NH2; disulfide 1-11) | 91.0
7 | 4 |  | 14 |  |  | CC[C@H](C)[C@@H]1NC(=O)[C@H](Cc2c[nH]c3ccccc23)NC(=O)[C@H](CCCCN)NC(=O)[C@@H](CCC(N)=O)NC(=O)[C@H](CCCCN)NC(=O)[C@@H]2CCCN2C(=O)[C@H](CC(=O)O)NC(=O)[C@H](CC(C)C)NC(=O)[C@@H](NC(C)=O)CSSC[C@@H](C(N)=O)NC(=O)[C@H](CCC(N)=O)NC1=O [Example 28, Ac-c(Cys-Leu-Asp-Pro-Lys-D-Gln-Lys-Trp-Ile-Gln-Cys)-NH2] (Ac-CLDPK[dQ]KWIQC-NH2; disulfide 1-11) | 96.9
8 | 8 |  | < 10 |  |  | CC[C@H](C)[C@@H]1NC(=O)[C@H](Cc2c[nH]c3ccccc23)NC(=O)[C@H](CCCCN)NC(=O)[C@H](CCC(N)=O)NC(=O)[C@H](CCCCN)NC(=O)[C@H]2CCCN2C(=O)[C@H](CC(=O)O)NC(=O)[C@H](CC(C)C)NC(=O)[C@@H](NC(C)=O)CSSC[C@@H](C(N)=O)NC(=O)[C@H](CCC(N)=O)NC1=O [Example 30, Ac-c(Cys-Leu-Asp-D-Pro-Lys-Gln-Lys-Trp-Ile-Gln-Cys)-NH2] (Ac-CLD[dP]KQKWIQC-NH2; disulfide 1-11) | 99.2
9 | 8 |  | < 5 |  |  | CC[C@H](C)[C@@H]1NC(=O)[C@H](Cc2c[nH]c3ccccc23)NC(=O)[C@H](CCCCN)NC(=O)[C@@H](NC(=O)[C@H](CCC(N)=O)NC(=O)[C@@H](N)CCCCN)CSSC[C@@H](C(N)=O)NC(=O)[C@H](CCC(N)=O)NC1=O [Example 48, Lys-Gln-c(Cys-Lys-Trp-Ile-Gln-Cys)-NH2] (H-KQCKWIQC-NH2; disulfide 3-8) | 91.9
10 | 6 |  | 39 |  |  | CCCCCCCC(=O)NCCCC[C@H](NC(=O)[C@H](CC(=O)O)NC(=O)[C@H]1CSSC[C@@H](N)C(=O)N[C@H](CCC(N)=O)C(=O)N[C@H]([C@H](C)CC)C(=O)N[C@H](Cc2c[nH]c3ccccc23)C(=O)N[C@H](CCCCN)C(=O)N[C@H](CCC(N)=O)C(=O)N[C@H](CCCCN)C(=O)N2CCC[C@@H]2C(=O)N[C@H](CC(=O)O)C(=O)N[C@H](CC(C)C)C(=O)N1)C(=O)O [Example 148, c(D-Cys-D-Gln-D-Ile-D-Trp-D-Lys-D-Gln-D-Lys-D-Pro-D-Asp-D-Leu-D-Cys)-Asp-Lys(Nε-octanoyl)-OH] (H-[dC][dQ][dI][dW][dK][dQ][dK][dP][dD][dL][dC]DK(Octanoyl)-OH; disulfide 1-11) | 100.9
11 | 20 |  | 38 |  |  | CC[C@@H](C)[C@H]1NC(=O)[C@@H](CCC(N)=O)NC(=O)[C@H](NC(=O)CN2CCN(CCO)CC2)CSSC[C@H](C(N)=O)NC(=O)[C@@H](CC(C)C)NC(=O)[C@@H](CC(=O)O)NC(=O)[C@H]2CCCN2C(=O)[C@@H](CCCCN)NC(=O)[C@@H](CCC(N)=O)NC(=O)[C@@H](CCCCN)NC(=O)[C@@H](Cc2c[nH]c3ccccc23)NC1=O [Example 152, HEPA-c(D-Cys-D-Gln-D-Ile-D-Trp-D-Lys-D-Gln-D-Lys-D-Pro-D-Asp-D-Leu-D-Cys)-NH2] (X1-[dC][dQ][dI][dW][dK][dQ][dK][dP][dD][dL][dC]-NH2; disulfide 1-11) | 103.5
12 | 20 |  | 17 |  |  | CCCCCCCCCCCC(=O)NCCCC[C@H](NC(C)=O)C(=O)N[C@H]1CSSC[C@@H](C(N)=O)NC(=O)[C@H](CCC(N)=O)NC(=O)[C@H]([C@@H](C)CC)NC(=O)[C@H](Cc2c[nH]c3ccccc23)NC(=O)[C@H](CCCCN)NC(=O)[C@H](CCC(N)=O)NC(=O)[C@H](CCCCN)NC(=O)[C@@H]2CCCN2C(=O)[C@H](CC(=O)O)NC(=O)[C@H](CC(C)C)NC1=O [Example 162, Ac-Lys(N/-dodecanoyl)-c(Cys-Leu-Asp-Pro-Lys-Gln-Lys-Trp-Ile-Gln-Cys)-NH2] (Ac-K(Lauroyl)CLDPKQKWIQC-NH2; disulfide 2-12) | 101.1
13 | 20 | 366 |  |  |  | CC(C)(C)OC(=O)N[C@@H](Cc1c[nH]c2ccccc12)C(=O)NCC(=O)NC1CCC(=O)NC1=O (stereo partly drawn) [Example 163, BOC-Trp-Gly-α-aminoglutaramide] | 105.7
14 | 5 | 240 |  |  |  | CC(C)(C)OC(=O)N[C@@H](Cc1c[nH]c2ccccc12)C(=O)NCCC(=O)NC1CCC(=O)NC1=O (stereo partly drawn) [Example 165, BOC-Trp-βA1a-α-aminoglutaramide] | 111.5
15 | > 1000 |  | 5 |  |  | CCCCCCCCCCCC(=O)NCCCC[C@H](N)C(=O)N[C@@H](CC(=O)O)C(=O)N[C@H]1CSSC[C@@H](C(N)=O)NC(=O)[C@H](CCC(N)=O)NC(=O)[C@H]([C@@H](C)CC)NC(=O)[C@H](Cc2c[nH]c3ccccc23)NC(=O)[C@H](CCCCN)NC(=O)[C@H](CCC(N)=O)NC(=O)[C@H](CCCCN)NC(=O)[C@@H]2CCCN2C(=O)[C@H](CC(=O)O)NC(=O)[C@H](CC(C)C)NC1=O [Example 170, Lys(Nε-dodecanoyl)-Asp-c(Cys-Leu-Asp-Pro-Lys-Gln-Lys-Trp-Ile-Gln-Cys)-NH2] (H-K(Lauroyl)DCLDPKQKWIQC-NH2; disulfide 3-13) | −5.1
16 |  | 546 |  |  |  | CC(C)OC(=O)N[C@@H](Cc1c[nH]c2ccccc12)C(=O)NCCC(=O)NC1CCC(=O)NC1=O (stereo partly drawn) [Example 179, N-(isopropoxycarbonyl)-Trp-βAla-α-aminoglutarimide] | 
17 | 6 | 54 |  |  |  | N[C@@H](Cc1c[nH]c2ccccc12)C(=O)NCCC(=O)NC1CCC(=O)NC1=O (stereo partly drawn) [Example 182, Trp-βAla-α-aminoglutaramide] | 
18 | 20 | > 1440 |  |  |  | CC[C@@H](C)[C@H]1NC(=O)[C@@H](CCC(N)=O)NC(=O)[C@H](N)CSSC[C@H](C(N)=O)NC(=O)[C@@H](CCCCN)NC(=O)[C@@H](Cc2c[nH]c3ccccc23)NC1=O [Example 183, c(D-Cys-D-Gln-D-Ile-D-Trp-D-Lys-D-Cys)-NH2] (H-[dC][dQ][dI][dW][dK][dC]-NH2; disulfide 1-6) | 
19 | 10 | 78 |  |  |  | CC(C)[C@@H](CC(=O)NC1CCC(=O)NC1=O)NC(=O)[C@H](Cc1c[nH]c2ccccc12)NC(=O)OC(C)(C)C (stereo partly drawn) [Example 184, BOC-Trp-βhVal-α-aminoglutarimide] | 
20 | 66 | 186 |  |  |  | CC(C)(NC(=O)[C@@H](N)Cc1c[nH]c2ccccc12)C(=O)NC1CCC(=O)NC1=O (stereo partly drawn) [Example 188, Trp-Aib-aminoglutarimide] | 
21 | 602 |  |  |  | 510 | BOC-Tcc-βAla-α-aminoglutaramide [Example 171] | 84.6
